Consider two compounds from paper PMC7519584 (Clinical cancer research : an official journal of the …, 2015).

For data set [1] the following is noted: ref NCT00610194; cited from earlier work.
Data set [2] is described as follows: Plasma pharmacokinetics of refametinib, metabolite M17 and sorafenib. The note with it: human, in vivo, Geometric mean maximum drug concentration (Cmax), multiple dose, day 1 of course 2, at the MTD, non-HCC patients.
Data set [3] can be described thus: clinical. The note with it: human, in vivo.
The conditions of data set [4]: human, in vivo.
Data set [5] concerns HCC. The note with it: sorafenib monotherapy, phase III trial in HCC (SHARP); cited from earlier work.

Turning to `COc1cc(F)c(F)c(Nc2ccc(I)cc2F)c1NS(=O)(=O)C1(C[C@H](O)CO)CC1` [refametinib], the “MTD of refametinib monotherapy” value in data set [1] is 50 mg twice daily. For the same compound, the Cmax – broadly, the peak of the concentration-time curve – in data set [2] was found to be 0.674 µg/mL. For the same compound, the “Patients with serious AEs considered possibly related to refametinib” value (human, in vivo) was 10 patients. In addition, for the setting “in combination with sorafenib 400 mg twice daily, 28-day courses”, the “Maximum tolerated dose (MTD) of refametinib” value is reported as 50 mg twice daily. The half-life (usually the time needed for the level to fall by half in the phase considered) in data set [3] (Plasma half-life (geometric mean)) was approximately 16 h. For the same compound, the Tmax (in general, the time from dosing to the highest level) in data set [3] (po) was approximately 3 h. Besides, the “Multiple-dose AUC0–12 higher than single-dose AUC0–12 by an average of” value in data set [4] is recorded as “approximately 40%”. Further, in data set [4] (28 days), the “Accumulation after multiple dosing” value is recorded as “less than 2 fold”.
Turning to `CNC(=O)c1cc(Oc2ccc(NC(=O)Nc3ccc(Cl)c(C(F)(F)F)c3)cc2)ccn1` [sorafenib], the “Sorafenib dose at the MTD of the combination” value (in combination with refametinib 50 mg twice daily, 28-day courses) is given as 400 mg twice daily. Further, in data set [5], the “Patients who achieved stable disease” value is reported as 71% and the Response rate was 2%.
